Patent publication US8063008B2, “Enzymatic production of peracids using perhydrolytic enzymes” (E. I. du Pont de Nemours and Company, priority 2005, dated 2011)
≈ marks a conversion by molar mass, not a printed value. Where “and” joins values, the source holds several entries; their conditions need not be identical. Equal values may be shown once.

Experiments:
[1] = Protease-catalyzed perhydrolysis of acetamide at pH 4.0 (Example 6); type: biochemical; details: pH 4.0, 500 mM H2O2, 1 mg protease
Method: (§1) Into a 4-mL glass vial with stir bar was added 1 mg protease (Table 6) in 0.050 mL of 50 mM sodium acetate/acetic acid buffer (pH 4.0), 0.900 mL of an aqueous mixture containing either a) acetamide (278 mM) in 50 mM sodium acetate/acetic acid buffer (pH 4.0) or b) diacetamide (278 mM) in 50 mM sodium acetate/acetic acid buffer (pH 4.0), and 0.052 mL 30% hydrogen peroxide (500 mM final concentration). […] A portion of the filtered reaction samples was diluted 1:10 with dd water and analyzed for hydrogen peroxide, and the remaining portion of the sample was directly analyzed for peracid using the HPLC assay method (Table 7).

[2] = Protease-catalyzed perhydrolysis of diacetamide at pH 4.0 (Example 6); type: biochemical; details: pH 4.0, 500 mM H2O2, 1 mg protease
Method: as §1

[3] = Protease-catalyzed perhydrolysis of triacetin at pH 4.0 (Example 7); type: biochemical; details: pH 4.0, 500 mM H2O2, 1 mg protease
Method: as §1, with “triacetin” for “either a) acetamide (278 mM) in 50 mM sodium acetate/acetic acid buffer (pH 4.0) or b) diacetamide”, “8).” for “7).”

[4] = Protease-catalyzed perhydrolysis of triacetin at pH 6.5 (Example 8); type: biochemical; details: pH 6.5, 500 mM H2O2, 1 mg protease
Method: The analytical procedure described by U. Karst et al. (Anal. Chem., 69 (17):3623-3627 (1997)) was employed, as described herein, for analysis of product mixtures containing peracid and hydrogen peroxide. Briefly, the concentration of peracetic acid (PAA) in analyzed samples ranged from 0.025 mM-10 mM, and the concentration of H2O2 ranged from 0.075 mM-3 mM. Reaction mixtures containing peracid and/or hydrogen peroxide were, if necessary prior to analysis, diluted to produce a concentration of peracid or peroxide in these ranges. Into a 4-mL vial was placed 0.100 mL of 20 mM methyl p-tolyl sulfide (MTS) in acetonitrile, 0.300 mL of distilled and deionized water (dd) and 0.100 mL of sample solution (undiluted or diluted with dd water by a factor of up to 1:25 for analysis of peracid), or 0.100 mL of 20 mM MTS in acetonitrile and 0.390 mL of dd water were added to 0.010 mL of a 1:10 dilution of sample solution (for analysis of hydrogen peroxide). After a reaction time of 10 minutes (in the dark, with no stirring), 0.400 mL CH3CN and 0.100 mL of 40-mM triphenylphosphine (TPP) in CH3CN were added to start the second derivatization reaction for detection of peroxide. The solution was left standing in the dark for 30 min to complete the assay reaction. At the end of 30 minutes, 0.100 mL of 10 mM N,N-diethyl-m-toluamide (DEET, HPLC external standard) was added and the resulting solution analyzed by HPLC: Supelco Discovery C8 10-cm column with pre-column, 10-μL injection, UV detection at 225 nm, solvent A: acetonitrile, solvent B: deionized water, 1 mL/min gradient as follows: […]
Into a 4-mL glass vial with stir bar was added 1 mg protease (Table 6) in 0.050 mL of 50 mM sodium phosphate buffer (pH 6.5), 0.900 mL of an aqueous mixture containing triacetin (278 mM) in 50 mM phosphate buffer (pH 6.5), and 0.052 mL 30% hydrogen peroxide (500 mM final concentration). After stirring for 5 or 30 minutes at 22° C., a 0.250 mL sample was filtered using a 30,000 NMWL filter (Millipore UltraFree-MC) centrifuged for 2 minute at 12,000 RPM. A portion of the filtered reaction samples was diluted 1:10 with dd water and analyzed for hydrogen peroxide, and the remaining portion of the sample was directly analyzed for peracid using the HPLC assay method (Table 9).

[5] = Protease-catalyzed perhydrolysis of acetamide at pH 6.5 (Example 9); type: biochemical; details: pH 6.5, 500 mM H2O2, 1 mg protease
Method: as §1, with “potassium phosphate” for “sodium acetate/acetic acid”, “6.5),” for “4.0),”, “6.5)” for “4.0)”, “10).” for “7).”

[6] = Protease-catalyzed perhydrolysis of diacetamide at pH 6.5 (Example 9); type: biochemical; details: pH 6.5, 500 mM H2O2, 1 mg protease
Method: as §1, with “potassium phosphate” for “sodium acetate/acetic acid”, “6.5),” for “4.0),”, “6.5)” for “4.0)”, “10).” for “7).”

E. coli ATCC 11229 = assay: Determination of Minimum Biocidal Concentration (MBC), XTT reduction inhibition (Example 21); type: cell-based; details: for Minimum Biocidal Concentration (MBC): E. coli ATCC 11229, 1.35×10^6 CFU/mL, 10 minutes at room temperature, XTT, six-log kill; for replicate OD (450 nm): replicates 1-8
Source text: The method described by J. Gabrielson, et al. (J. Microbiol. Methods 50: 63-73 (2002)) was employed for determination of the Minimum Biocidal Concentration (MBC) of peracids, or for determination of the MBC of hydrogen peroxide and enzyme substrates. The assay method is based on XTT reduction inhibition, where XTT ((2,3-bis[2-methoxy-4-nitro-5-sulfophenyl]-5-[(phenylamino)carbonyl]-2H-tetrazolium, inner salt, monosodium salt) is a redox dye that indicates microbial respiratory activity by a change in optical density (OD) measured at 490 nm or 450 nm. However, there are a variety of other methods available for testing the activity of disinfectants and antiseptics including, but not limited to viable plate counts, direct microscopic counts, dry weight, turbidity measurements, absorbance, and bioluminescence (see, for example Brock, Semour S., Disinfection, Sterilization, and Preservation, 5th edition, Lippincott Williams & Wilkins, Philadelphia, Pa., USA; 2001).
The filtered enzyme-generated product mixture was diluted 1:5 with sterile water, and the resulting solution was further diluted with sterile water in four 1:1 serial dilutions to obtain the concentrations of PAA and hydrogen peroxide listed in Table 22.
The 1:5 dilution and four serial dilutions were evaluated for biocidal activity by mixing 0.100 mL of the PAA-containing solution with 0.100 mL of an inoculum containing 2.7×10^6 CFU/mL of E. coli ATCC 11229 (American Type Culture Collection, Manassas, Va.) in Millers LB broth diluted with Butterfield Buffer; eight replicates of each mixture were contained in individual wells of a sterile 96-well microtiter plate. After the resulting cell suspensions were allowed to stand for 10 minutes at room temperature, they were tested for viability using the growth indicator XTT (2,3-bis[2-methoxy-4-nitro-5-sulfophenyl]-5-[(phenylamino)carbonyl]-2H-tetrazolium, inner salt, monosodium salt; CAS RN 111072-31-2) according to the method of Gabrielson et al. (J. Microbiol. Methods, 50:63-73 (2002)).
Separately, the cell inoculum was treated with sterile solutions of triacetin (Table 24) or hydrogen peroxide in 50 mM phosphate buffer (pH 6.5) (Table 25) at the concentrations present in each of the biocide dilutions in Table 23 to determine the MBC for these components of the biocide solution.

Chymopapain: Chymopapain, papaya latex, Sigma C8526
acetamide (250 mM) peracetic acid (ppm), 5 min ([1]; 5 min): 66 ppm | acetamide (250 mM) peracetic acid (ppm), 30 min ([1]; 30 min): 65 ppm | diacetamide (250 mM) peracetic acid (ppm), 5 min ([2]; 5 min): 100 ppm | diacetamide (250 mM) peracetic acid (ppm), 30 min ([2]; 30 min): 131 ppm | triacetin (250 mM) peracetic acid (ppm), 5 min ([3]; 5 min): 72 ppm | triacetin (250 mM) peracetic acid (ppm), 30 min ([3]; 30 min): 57 ppm | triacetin (250 mM) peracetic acid (ppm), 5 min ([4]; 5 min): 69 ppm | triacetin (250 mM) peracetic acid (ppm), 30 min ([4]; 30 min): 167 ppm | acetamide (250 mM) peracetic acid (ppm), 5 min ([5]; 5 min): 94 ppm | acetamide (250 mM) peracetic acid (ppm), 30 min ([5]; 30 min): 12 ppm | diacetamide (250 mM) peracetic acid (ppm), 5 min ([6]; 5 min): 218 ppm | diacetamide (250 mM) peracetic acid (ppm), 30 min ([6]; 30 min): 170 ppm

CC(=O)OO [peracetic acid]
Minimum Biocidal Concentration (MBC) (E. coli ATCC 11229; listed as PAA): > 2.4 ppm | MBC (E. coli ATCC 11229; Escherichia coli, ATCC11229, 10 min, read-out: Minimum Biocidal Concentration (MBC), E. coli ATCC 11229, 1.35×10^6 CFU/mL, 10 minutes at room temperature, XTT, six-log kill): 2.4 mg/L (≈ 31.6 µM) | blank-corrected mean OD (E. coli ATCC 11229; PAA 1.2 ppm, H2O2 40.2 ppm): 0.203 | mean replicate OD (450 nm) (E. coli ATCC 11229; PAA 1.2 ppm, H2O2 40.2 ppm): 0.617 | replicate OD (450 nm) (E. coli ATCC 11229; PAA 1.2 ppm, H2O2 40.2 ppm): 0.674 and 0.635 and 0.658 and 0.625 and 0.639 and 0.520 and 0.496 and 0.692 | blank-corrected mean OD (E. coli ATCC 11229; PAA 2.4 ppm, H2O2 80.4 ppm): 0.007 | mean replicate OD (450 nm) (E. coli ATCC 11229; PAA 2.4 ppm, H2O2 80.4 ppm): 0.421 | replicate OD (450 nm) (E. coli ATCC 11229; PAA 2.4 ppm, H2O2 80.4 ppm): 0.400 and 0.397 and 0.403 and 0.401 and 0.409 and 0.407 and 0.543 and 0.406 | blank-corrected mean OD (E. coli ATCC 11229; PAA 4.8 ppm, H2O2 160.8 ppm): −0.005 | mean replicate OD (450 nm) (E. coli ATCC 11229; PAA 4.8 ppm, H2O2 160.8 ppm): 0.409 | replicate OD (450 nm) (E. coli ATCC 11229; PAA 4.8 ppm, H2O2 160.8 ppm): 0.393 and 0.388 and 0.399 and 0.398 and 0.404 and 0.401 and 0.471 and 0.418 | blank-corrected mean OD (E. coli ATCC 11229; PAA 9.6 ppm, H2O2 321.6 ppm): −0.009 | mean replicate OD (450 nm) (E. coli ATCC 11229; PAA 9.6 ppm, H2O2 321.6 ppm): 0.405 | replicate OD (450 nm) (E. coli ATCC 11229; PAA 9.6 ppm, H2O2 321.6 ppm): 0.398 and 0.392 and 0.395 and 0.404 and 0.409 and 0.394 and 0.422 and 0.427 | blank-corrected mean OD (E. coli ATCC 11229; PAA 19.15 ppm, H2O2 643.1 ppm): −0.029 | mean replicate OD (450 nm) (E. coli ATCC 11229; PAA 19.15 ppm, H2O2 643.1 ppm): 0.388 | replicate OD (450 nm) (E. coli ATCC 11229; PAA 19.15 ppm, H2O2 643.1 ppm): 0.383 and 0.379 and 0.387 and 0.381 and 0.382 (2×) and 0.403 (2×)

CC(=O)OO [Commercially-Available Peracetic Acid, peracetic acid, reference compound]
Minimum Biocidal Concentration (MBC) (E. coli ATCC 11229; listed as commercial source of peracetic acid): > 2.3 ppm | blank-corrected mean OD (E. coli ATCC 11229; commercial PAA 1.15 ppm): 1.138 | mean replicate OD (450 nm) (E. coli ATCC 11229; commercial PAA 1.15 ppm): 1.410 | replicate OD (450 nm) (E. coli ATCC 11229; commercial PAA 1.15 ppm): 1.343 and 1.377 and 1.368 and 1.378 and 1.324 and 1.386 and 1.734 and 1.367 | blank-corrected mean OD (E. coli ATCC 11229; commercial PAA 2.3 ppm): 0.026 | mean replicate OD (450 nm) (E. coli ATCC 11229; commercial PAA 2.3 ppm): 0.298 | replicate OD (450 nm) (E. coli ATCC 11229; commercial PAA 2.3 ppm): 0.292 (2×) and 0.291 and 0.294 and 0.303 (2×) and 0.318 and 0.288 | blank-corrected mean OD (E. coli ATCC 11229; commercial PAA 4.7 ppm): 0.027 | mean replicate OD (450 nm) (E. coli ATCC 11229; commercial PAA 4.7 ppm): 0.298 | replicate OD (450 nm) (E. coli ATCC 11229; commercial PAA 4.7 ppm): 0.294 (2×) and 0.295 and 0.298 and 0.293 and 0.304 and 0.310 and 0.297 | blank-corrected mean OD (E. coli ATCC 11229; commercial PAA 9.4 ppm): 0.024 | mean replicate OD (450 nm) (E. coli ATCC 11229; commercial PAA 9.4 ppm): 0.295 | replicate OD (450 nm) (E. coli ATCC 11229; commercial PAA 9.4 ppm): 0.290 and 0.294 (2×) and 0.291 and 0.299 and 0.295 and 0.301 and 0.296 | blank-corrected mean OD (E. coli ATCC 11229; commercial PAA 18.75 ppm): 0.024 | mean replicate OD (450 nm) (E. coli ATCC 11229; commercial PAA 18.75 ppm): 0.295 | replicate OD (450 nm) (E. coli ATCC 11229; commercial PAA 18.75 ppm): 0.289 and 0.288 and 0.296 (2×) and 0.294 and 0.300 and 0.306 and 0.292
